Source: patent publication US9073858B2, “Methods of targeted drug development” (priority 2010, dated 2015)
pIC50: −log10 of the molar value. Like-named read-outs stand apart in the source and are kept apart here.

Key:
MDBK line = test: MTT Cell Proliferation Assay, MDBK line; type: cell-based, bovine
From the text: (§1) The following example describes the MTT Cell Proliferation Assay.
(§2) The MTT Cell Proliferation Assay is a colorimetric assay system that measures the reduction of the tetrazolium salt MTT (3-(4,5-dimethylthiazol-2-yl)-2,5-diphenyltetrazolium bromide) into insoluble formazan crystals, produced by the mitochondria of viable cells. […] The color can then be quantified by spectrophotometric means. Among the applications for the method are drug sensitivity, cytotoxicity, response to growth factors, and cell activation. The reduction of tetrazolium salts is now recognized as a safe, accurate alternative to radiometric testing.
(§3) Two replicates on each cell plate and 2 duplicate plates gave 4 individual replicates of each concentration, in each cell line. Concentrations were diluted in 100% DMSO from 25 mM stocks.
(§4) Twelve 96 well plates of each cell line were plated. Plating was done by dislodging cells as in passage protocol, counting on a hemocytometer, re-suspending in standard growth media, and plating using a multichannel pippetor.
(§5) 16 μl of 25 mM stock+34 μl DMSO=8 mM starting concentrations, and serial diluted as with test compounds in same plate. […] Two replicates of each concentrations was run on each cell plate. All compound addition and cell treatments were done using aseptic technique under a laminar flow aseptic hood.
(§6) Control: 0.5% DMSO in treatment media was used as the control.
(§7) MTT dye (Thiazolyl Blue Tetrazolium Bromide, Sigma cat # M5655) stock was prepared in bulk and stored at 4° C. for use: 5 mgs/ml sterile PDS, shielded from light. 4 ul of this stock per 100 uls treatment media per well was used.
(§8) Plates were incubated overnight prior to treatment, with treatment day=Day 0. Compound treatments were prepared prior to washing cells to minimize time cells were dry at room temperature after final aspiration. Compounds were diluted in 100% DMSO in 96 well polypropylene plates:40 μl 25 mM stock+10 μl DMSO=20 mM; 20 μl of 20 mM+30 μl DMSO=8 mM; 20 μl of 8 mM+30 μl DMSO=3.2 mM; 20 μl of 3.2 mM+30 μl DMSO=1.3 mM; 20 μl of 1.3 mM+30 μl DMSO=0.51 mM.
(§9) 5.0 μl/ml were added to treatment media, in sterile, 2.2 ml deep well plates=0.5% dmso final. Ten μl of each dmso concentration was added to 2.0 ml of treatment media and then mixed using a 1200 μl multichannel pipettor. Cell plates were treated from the deep well plates. Treatment media was standard growth media containing 0.5% FBS and standard additions. This reduced FBS concentration allowed for a slower growth rate in cells.
(§10) Media was aspirated from cell plates, and washed with 200 μl/well sterile PBS. Aspirated PBS wash, and cell plates were treated with 200 μl of compound/treatment media per well, and incubated at 37° C., 5% CO2 for 3 days.
(§11) Prior to harvesting, visual observations were made under an inverted microscope. Plates were harvested by: aspirating the growth media; adding back MTT dye/100 μl treatment media; and incubating plates at 37° C. for 1 hour. MTT dye was aspirated. 100 μl/well dmso was added, and then shaken on a Bellco plate shaker for 5 minutes, at 4.5 setting.
(§12) Plates were read in a Tecan Sunrize UV plate reader, at 560 nm. Settings: Read mode, Outside Normal 2 sec; Shake settle time 3 sec. Data is reported as % inhibition, calculated for individual plates using control values from that plate.

EGFR = target: T1, EGFR (Homo sapiens, UniProt P00533); test: EGFR in-cell Western (ICW) screening protocol; type: cell-based; parameters: unit not given here; details: for ICW Screen: initial screen
T1 construct: endogenous in cells; host or cells: A431 cells (ATCC CRL-1555)
T1 sequence (P00533 25-1210): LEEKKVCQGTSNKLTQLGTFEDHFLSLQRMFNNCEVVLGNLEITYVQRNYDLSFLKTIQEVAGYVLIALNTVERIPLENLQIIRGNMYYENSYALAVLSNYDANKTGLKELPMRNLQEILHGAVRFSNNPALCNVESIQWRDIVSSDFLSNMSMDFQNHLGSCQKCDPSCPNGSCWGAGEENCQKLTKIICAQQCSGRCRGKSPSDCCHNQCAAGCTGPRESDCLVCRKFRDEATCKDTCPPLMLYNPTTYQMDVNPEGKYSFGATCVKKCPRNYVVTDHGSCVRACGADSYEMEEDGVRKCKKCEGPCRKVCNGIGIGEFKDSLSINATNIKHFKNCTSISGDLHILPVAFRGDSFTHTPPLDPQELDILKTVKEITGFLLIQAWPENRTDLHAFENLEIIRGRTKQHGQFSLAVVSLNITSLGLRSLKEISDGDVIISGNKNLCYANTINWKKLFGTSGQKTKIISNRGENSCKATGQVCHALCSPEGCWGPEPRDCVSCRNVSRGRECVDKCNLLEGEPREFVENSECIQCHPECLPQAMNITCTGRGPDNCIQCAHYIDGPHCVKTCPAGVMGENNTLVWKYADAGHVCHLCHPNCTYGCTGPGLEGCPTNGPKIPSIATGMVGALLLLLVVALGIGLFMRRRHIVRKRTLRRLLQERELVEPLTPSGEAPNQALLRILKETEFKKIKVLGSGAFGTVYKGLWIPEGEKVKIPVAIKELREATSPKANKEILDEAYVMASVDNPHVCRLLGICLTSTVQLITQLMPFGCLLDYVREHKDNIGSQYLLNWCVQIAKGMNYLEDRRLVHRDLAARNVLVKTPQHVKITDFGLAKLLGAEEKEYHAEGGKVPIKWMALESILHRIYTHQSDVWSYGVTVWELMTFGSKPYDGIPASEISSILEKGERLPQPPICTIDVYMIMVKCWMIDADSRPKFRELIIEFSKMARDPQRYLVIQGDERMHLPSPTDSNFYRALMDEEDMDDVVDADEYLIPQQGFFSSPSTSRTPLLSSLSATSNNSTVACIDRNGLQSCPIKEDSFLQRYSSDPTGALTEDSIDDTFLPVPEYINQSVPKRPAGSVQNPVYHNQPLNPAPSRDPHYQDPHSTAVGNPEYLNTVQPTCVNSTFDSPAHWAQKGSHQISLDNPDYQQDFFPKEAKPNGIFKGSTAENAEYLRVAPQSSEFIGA
Method: The following example describes general EGFR in-cell Western (ICW) screening protocol.
Two cell plates were prepared for each compound plate.
Serum Starvation: The cells were serum starved prior to compound addition. […] The cell plates were incubated at 37° C./5% CO2 for 2 hours.
Prepared compound plates were stored at RT prior to use and at 4° C. long term.
Compound Dilution Plate Preparation: 250 μl of DMEM supplemented with 1 mg/ml BSA (Sigma A3059-10G) was added to the appropriate wells of a 96 well plate to prepare the compound dilution plates. Using a multichannel pipettor, 1.25 μl of compound from the compound plate was transferred into the compound dilution plate.
Compound Addition: The starve media was removed from the cell plates by aspiration. Using a multichannel pipettor, the compound dilution plates were mixed by pipetting up and down three times. 50 μl of mixed, diluted compound was added to each of two rows/columns on each of two cell plates. The cell plates with compound were incubated at 37° C./5% CO2 for 4 hours.
50 μl of 20 or 0 ng/ml EGF was added to the appropriate wells without the removal of compound. The compound and EGF were mixed by pipetting up and down three times.
The plates were incubated at RT for 20 min without shaking. The Fixation Solution was removed by aspiration and the plates washed four times with 200 μl each of Triton Wash Solution (1×PBS, Sigma P3813-10PK, and 0.1% Triton X-100, T8787-50ML) for 5 min with gentle shaking.
The block was removed by aspiration and 50 μl of diluted primary Ab mix was added. The plates were incubated at 4° C. overnight with gentle shaking. The plates were washed five times with 200 μl of PBST (1×PBS, Sigma P3813-10PK, and 0.1% Tween-20, Sigma P9416-50ML) for 5 min each with shaking. 50 μl of diluted secondary Ab mix was added and the plates incubated at RT for 1 h with shaking. The plates were washed 5× with 200 μl of PBST for 5 min each with shaking. One final wash with 200 μl of PBS (Sigma P3813-10PK) for 5 min with shaking was performed prior to scanning.
In some screening assays, the dilution of the secondary Ab conjugates was 1/800 rather than 1/1200.
Plate Scanning: The plates were scanned on an Odyssey Infrared Imaging System from LI-COR Biosciences. The focus offset was set at 3.5 mm and the scanning intensity set at 3 for the 700 channel and 7 for the 800 channel.
Data Analysis: The % of Maximum and % Inhibition values were calculated as follows. 700 Channel=signal for total EGFR (used to control for variation in cell number). 800 Channel=signal for phosphorylated EGFR. 800−EGF=basal level EGFR phosporylation+non-specific signal (no compound). 800+EGF=800−EGF+EGF dependent EGFR receptor phosphorylation (no compound). 700/800com=700 or 800 channel signals with compound. % Maximum={[(800com/700com)−(800−EGF/700−EGF)]/[(800+EGF/700+EGF)−(800−EGF/700−EGF)]}×100%. % Inhibition=100%−(% Maximum).

[1] = test system: epithelial carcinoma A431 cell line; test: MTT Cell Proliferation Assay, A431 cell line; type: cell-based; details: for MTT (10 Point follow-up) ratio / MTT-72 h A431/MDBK (ratio): value in brackets; for MTT (10 Point follow-up) ratio: numerically MDBK over A431; for MTT-72 h A431/MDBK (ratio): numerically MDBK value over A431 value
From the text: as §1, §2, §3, §4, §5, §6, §7, §8, §9, §10, §11, §12

[2] = Bos taurus, MDBK, 10 point follow-up, second value of pair, read-out: MTT (10 Point follow-up) MDBK
[3] = Homo sapiens, A-431, 10 point follow-up, first value of pair, read-out: MTT (10 Point follow-up) A431
[4] = Bos taurus, MDBK, 72 h, second value of A431/MDBK pair, read-out: MTT-72 h MDBK
[5] = Homo sapiens, A-431, 72 h, 72 h, first value of A431/MDBK pair, read-out: MTT-72 h A431

| SMILES | pIC50 (MDBK line; 10 point follow-up, second value of pair, read-out: MTT (10 Point follow-up) MDBK) | ICW Screen (EGFR) | pIC50 ([1]; 10 point follow-up, first value of pair, read-out: MTT (10 Point follow-up) A431) | MTT (10 Point follow-up) ratio ([1]; 10 point follow-up) | pIC50 (MDBK line; [2]) | pIC50 [1, 3] | pIC50 (MDBK line; [4]) | ICW Re-Test (EGFR) | MTT-72 h A431/MDBK (ratio) ([1]; 72 h) | pIC50 [1, 5] | pIC50 (MDBK line; 72 h, second value of A431/MDBK pair, read-out: MTT-72 h MDBK) | pIC50 ([1]; 72 h, first value of A431/MDBK pair, read-out: MTT-72 h A431) |
| --- | --- | --- | --- | --- | --- | --- | --- | --- | --- | --- | --- | --- |
| Oc1c(C(Nc2ccccn2)c2ccc(Cl)cc2Cl)ccc2cccnc12 (centres unmarked) [compound 10046] | 5.51 | 12.78 | 5.78 | 1.87 | – | – | – | – | – | – | – | – |
| Cc1cccc(NC(c2ccccc2F)c2ccc3cccnc3c2O)n1 (centres unmarked) [compound 10015] | – | 25.99 | – | 0.99 | 5.48 | 5.48 | – | – | – | – | – | – |
| COc1ccc(C(Nc2ccccn2)c2ccc3cccnc3c2O)cc1OC (centres unmarked) [compound 10518] | – | 39.93 | – | – | – | – | 5.27 | 51.72 | 0.83 | 5.19 | – | – |
| Oc1c(C(Nc2ccccn2)c2ccccn2)cc(Cl)c2cccnc12 (centres unmarked) [compound 10954] | – | 31.09 | – | 1.26 | 5.66 | 5.79 | 5.64 | – | 1.33 | 5.76 | – | – |
| Oc1c(C(Nc2ccccc2)c2ccccn2)ccc2cccnc12 (centres unmarked) [compound 11018] | – | 25.31 | – | – | – | – | 5.09 | 21.62 | 0.89 | 5.04 | – | – |
| CC(=O)Nc1ccc(NC(c2ccccn2)c2ccc3cccnc3c2O)cc1 (centres unmarked) [compound 11017] | – | 25.07 | – | – | – | – | 5.02 | – | 0.83 | 4.93 | – | – |
| COc1ccc(C(NC(=O)c2cccnc2)c2cc(Cl)c3cccnc3c2O)cc1OC (centres unmarked) [compound 10969] | – | 30.17 | – | 1.02 | 6.28 | 6.29 | – | 73.15 | – | – | – | – |
| Cc1ccc(C)c(C(Nc2cccnc2)c2cc(Cl)c3cccnc3c2O)c1 (centres unmarked) [compound 10944] | – | 68.22 | – | – | 5.56 | 5.73 | 5.53 | 67.75 | – | 5.69 | – | – |
| Cc1cccc(NC(c2ccc(C)s2)c2ccc3ccc(C)nc3c2O)n1 (centres unmarked) [compound 10952] | – | 49.39 | – | – | – | – | 5.11 | 43.94 | 0.74 | 4.98 | – | – |
| Oc1cccnc1NC(c1ccccc1F)c1ccc2cccnc2c1O (centres unmarked) [compound 10512] | – | 12.86 | – | 1.92 | 6.00 | 6.29 | – | – | – | – | – | – |
| Cc1ccc2ccc(C(Nc3ccccn3)c3sccc3C)c(O)c2n1 (centres unmarked) [compound 10958] | – | 60.73 | – | – | – | – | 5.01 | 70.92 | 0.65 | 4.83 | – | – |
| COc1cc(C(Nc2ccccn2)c2cc(Cl)c3cccnc3c2O)cc(Br)c1O (centres unmarked) [compound 10087] | – | 62.13 | – | 1.18 | 5.26 | 5.33 | 5.24 | 41.13 | 1.11 | 5.28 | – | – |
| Cc1cccc(NC(c2ccc3c(c2)OCO3)c2ccc3cccnc3c2O)n1 (centres unmarked) [compound 10055] | – | 28.09 | – | – | – | – | – | – | 0.68 | – | 5.09 | 4.92 |
| COc1cc(C(Nc2cc(C)ccn2)c2ccc3cccnc3c2O)ccc1O (centres unmarked) [compound 1973] | – | 54.76 | – | – | – | – | 5.12 | 53.31 | 0.53 | 4.85 | – | – |
| Cc1cccc(NC(c2ccccn2)c2ccc3ccc(C)nc3c2O)n1 (centres unmarked) [compound 10948] | – | 44.24 | – | – | – | – | 4.92 | 30.99 | 1.34 | 5.05 | – | – |
| Oc1c(C(Nc2ccccn2)c2ccc(OC(F)F)cc2)ccc2cccnc12 (centres unmarked) [compound 10466] | – | 17.15 | – | 1.08 | 6.11 | 6.14 | 6.02 | – | 1.31 | 6.14 | – | – |
